Results as given in patent publication US9593305B2, “Differentiation of pluripotent stem cells” (Janssen Biotech, Inc., priority 2008, dated 2017).
Like-named read-outs stand apart in the source and are kept apart here.

Tests used:
[1] = system: H1 human embryonic stem cells; assay: Secondary assay: compound combined with individual growth factors or small molecules, no activin A (Example 5, Table 4); format: cell-based; details: for increase in SOX17 expression (% of the activin A/Wnt3a control): growth factor 50 ng/ml combined with 2.5 μM compound and Wnt3a
Protocol: Clusters of H1 human embryonic stem cells were grown on reduced growth factor […]™ (Invitrogen; Cat #356231)-coated tissue culture plastic. Cells were passaged using collagenase (Invitrogen; Cat #Cat #17104-019) treatment and gentle scraping, washed to remove residual enzyme, and plated with even dispersal at a ratio of 1:1 (surface area) on reduced growth factor […]™-coated 96-well black plates (Packard ViewPlates; PerkinElmer; Cat #6005182) using volumes of 100 μl/well. Cells were allowed to attach as clusters and then recover log phase growth over a 1 to 3 day period, feeding daily with MEF conditioned medium supplemented with 8 ng/ml bFGF (R&D Systems; Cat #233-FB). Plates were maintained at 37° C., 5% CO2 in a humidified box throughout the duration of assay.
Other agents tested were purchased as follows: BMP-7 (Sigma; Cat #B1434), LY294002 (Cayman; Cat 70920), PD98059, U0126, U0124 (EMD Biosciences; Cat #453710), muscimol (Tocris; Cat #0289), biuculline (Tocris; Cat #0130), sodium butyrate (Sigma; Cat #B5887). All growth factors were solubilized in PBS with 0.1% BSA (Sigma; Cat #A7888) and stored frozen at −80° C. Small molecules were solubilized in 100% DMSO (Sigma; Cat #D2650) and stored frozen at −80° C. The compounds were available as 5 mM stocks in 96-well plate format, solubilized in 100% DMSO and stored at −80° C. The compounds of the present invention were further diluted to an intermediate concentration of 0.2 mM in 50 mM HEPES (Invitrogen; Cat #15630-080), 20% DMSO and stored at 4° C. All growth factors and inhibitors were prepared in a deep well, 96-well polypropylene plate, diluted to 5× intermediate stocks in DMEM:F12 base medium at the beginning of assay and stored at 4° C.
A secondary screening assay was conducted, testing in triplicate and feeding on alternate days over the four-day assay timeframe. Assays were initiated by aspirating culture medium from each well followed by three washes in PBS to remove residual growth factors and serum. Test volumes of 80 μl per well were added back containing DMEM:F12 base medium (Invitrogen; Cat #11330-032) supplemented with 0.625% FCS (HyClone; Cat #SH30070.03), 25 ng/ml Wnt3a (R&D Systems), and 3.125 μM compound plus 20 μl 5× stock of growth factor or small molecule to yield a final concentration of 0.5% FCS, 20 ng/ml Wnt3a, and 2.5 μM compound. […] Final assay concentrations of small molecules tested were as follows: muscimol (20 μM), PD98059 (1 μM), LY294002 (2.5 μM), 00124 (1 μM), U0126 (1 μM), sodium butyrate (0.5 mM). Positive control wells (100 μl/well) contained the same base medium supplemented with 0.5% FCS, 20 ng/ml Wnt3a and 100 ng/ml activin A. Negative control wells (100 μl/well) contained the same base medium with 0.5% FCS and 20 ng/ml Wnt3a, omitting activin A.
On day 3, wells were aspirated and fed with 80 μl DMEM:F12 base medium supplemented with 2.5% FCS (HyClone) and 3.125 μM cyclic aniline-pyridinotriazine compound plus 20 μl 5× stock of growth factors or small molecules per well to yield a final concentration of 2% FCS and 2.5 μM compound (omitting Wnt3a) and as denoted on day one for all remaining growth factors or small molecules. Positive control wells (100 μl/well) contained the same base medium supplemented with 2% FCS and 100 ng/ml activin A, omitting Wnt3a. Negative control wells (100 μl/well) contained the same base medium with 2% FCS, omitting both activin A and Wnt3a.
At the conclusion of four-days of culture, assay plates were washed twice with PBS, fixed with 4% paraformaldehyde (Alexis Biochemical; Cat #ALX-350-011) at room temperature for 20 minutes, then washed three times with PBS and permeabilized with 0.5% Triton X-100 (Sigma; Cat #T8760-2) for 20 minutes at room temperature. Cells were washed again three times with PBS and blocked with 4% chicken serum (Invitrogen; Cat #16110082) in PBS for 30 minutes at room temperature.

[2] = system: H1 human embryonic stem cells; assay: Analogue screening in combination with only GDF-8, SOX17 (Example 21, Tables 18 and 19); format: cell-based; design: Sox17 Expression: % of positive control / Cell Number: % of positive control: tested at 2.5 µM; details: compound in combination with GDF8
Protocol: Briefly, clusters of H1 human embryonic stem cells were grown on reduced growth factor Matrigel™ (Invitrogen; Cat #356231)-coated tissue culture plastic. Cells were passaged using collagenase (Invitrogen; Cat #17104-019) treatment and gentle scraping, washed to remove residual enzyme, and plated with even dispersal at a ratio of 1:1 (surface area) on reduced growth factor […]™ (BD Biosciences; Cat #356231)-coated 96-well black plates (Packard ViewPlates; PerkinElmer; Cat #6005182) using volumes of 100 μl/well. Cells were allowed to attach and then recover log phase growth over a 1 to 3 day time period, feeding daily with MEF conditioned medium supplemented with 8 ng/ml bFGF (R&D Systems; Cat #233-FB). Plates were maintained at 37° C., 5% CO2 in a humidified box throughout the duration of assay.
Screening was conducted using a library of the analogue compounds. Compounds from this library were made available as 5 mM stocks in 96-well plate format, solubilized in 100% DMSO (Sigma; Cat #D2650) and stored at −80° C. The library compounds were further diluted to an intermediate concentration of 0.2 mM in 50 mM HEPES (Invitrogen; Cat #15630-080), 20% DMSO and stored at 4° C. Test conditions were performed in triplicate, feeding on alternating days over a four-day assay period. Assays were initiated by aspirating culture medium from each well followed by three washes in PBS (Invitrogen; Cat #14190) to remove residual growth factors. On the first day of assay, test volumes of 200 μl per well were added to each well using DMEM:F12 base medium (Invitrogen; Cat #11330-032) supplemented with 0.5% FCS (HyClone; Cat #SH30070.03) and 200 ng/ml GDF-8 (R&D Systems, Cat #788-G8) plus 2.5 μM compound. On the third day of assay, test volumes of 100 μl per well were added to each well using DMEM:F12 base medium supplemented with 2% FCS plus 200 ng/ml GDF-8 (R&D Systems, Cat #788-G8). Positive control samples contained the same base medium supplemented with FCS and 1000 ng/ml recombinant human activin A (PeproTech; Cat #120-14) throughout the four-day assay along with Wnt3a (20 ng/ml) on days 1 and 2. Negative control samples contained DMEM:F12 base medium supplemented with FCS, adding Wnt3a on days 1 and 2 but omitting treatment with activin A.
At the conclusion of four-days of culture, assay plates were washed twice with PBS (Invitrogen; Cat #14190), fixed with 4% paraformaldehyde (Alexis Biochemical; Cat #ALX-350-011) at room temperature for 20 minutes, then washed three times with PBS and permeabilized with 0.5% Triton X-100 (Sigma; Cat #T8760-2) for 20 minutes at room temperature. Cells were washed again three times with PBS and blocked with 4% chicken serum (Invitrogen; Cat #16110082) in PBS for 30 minutes at room temperature. Primary antibody (goat anti-human SOX17; R&D Systems; Cat #AF1924) was diluted 1:100 in 4% chicken serum and added to each well for one hour at room temperature. Alexa Fluor 488 conjugated secondary antibody (chicken anti-goat IgG; Molecular Probes; Cat #AZ1467) was diluted 1:200 in PBS and added to each sample well after washing three times with PBS. To counterstain nuclei, 4 μg/ml Hoechst 33342 (Invitrogen; Cat #H3570) was added for ten minutes at room temperature. Plates were washed once with PBS and left in 100 μl/well PBS for imaging.
Imaging was performed using an IN Cell Analyzer 1000 (GE Healthcare) utilizing the 51008bs dichroic for cells stained with Hoechst 33342 and Alexa Fluor 488. Exposure times were optimized from positive control wells and from untreated negative control wells stained with secondary antibody alone. Images from 15 fields per well were acquired to compensate for any cell loss during the bioassay and subsequent staining procedures. Measurements for total cell number and total SOX17 intensity were obtained from each well using IN Cell Developer Toolbox 1.7 (GE Healthcare) software. […]

[3] = relative to Activin A/Wnt3a of the same plate
[4] = agent combined with 2.5 μM compound and Wnt3a, no activin A

Molecule: N#CC(=C(/N)Sc1ccccc1N)/C(C#N)=C(\N)Sc1ccccc1N [Compound U0126, U0126, reference compound]
- effect on SOX17 expression [1]: inhibited or had negligible effects on SOX17 expression

Molecule: CN1CCC(C(=O)NCc2sc(Nc3cccc(C(F)(F)F)c3)nc2-c2cccnc2)CC1 [Compound 50, 1-Methyl-N-[(4-pyridin-3-yl-2-{[3-(trifluoromethyl)phenyl]amino}-1,3-thiazol-5-yl)methyl]piperidine-4-carboxamide]
- Cell Number: Average Total Cell Number ([2]; four assay plates): 2666
- Sox17 Expression: Average Total Intensity ([2]; four assay plates): 1.48E+07
- Cell Number: % of positive control [2, 3]: 19.1%
- Sox17 Expression: % of positive control [2, 3]: 4.8%

Molecule: NCc1cc(=O)[nH]o1 [muscimol, reference compound]
- effect on SOX17 expression [1, 4]: modest increase in SOX17 expression

Molecule: CCCC(=O)[O-].[Na+] [sodium butyrate, reference compound]
- effect on SOX17 expression [1, 4]: inhibited or had negligible effects on SOX17 expression

Molecule: VEGF
- increase in SOX17 expression (% of the activin A/Wnt3a control) ([1]; no activin A): 18%

Molecule: COc1cccc(-c2cc(=O)c3ccccc3o2)c1N [PD98059, reference compound]
- effect on SOX17 expression [1, 4]: inhibited or had negligible effects on SOX17 expression

Molecule: CS/C(N)=C(C#N)/C(C#N)=C(\N)SC [Compound U0124, U0124, reference compound]
- effect on SOX17 expression [1, 4]: inhibited or had negligible effects on SOX17 expression

B1: BMP-6: member of the BMP family, R&D Systems (protein, UniProt P22004 375-513, looked up)
Bone morphogenetic protein 6: SASSRRRQQSRNRSTQSQDVARVSSASDYNSSELKTACRKHELYVSFQDLGWQDWIIAPKGYAANYCDGECSFPLNAHMNATNHAIVQTLVHLMNPEYVPKPCCAPTKLNAISVLYFDDNSNVILKKYRNMVVRACGCH
- effect on SOX17 expression [1, 4]: inhibited or had negligible effects on SOX17 expression

B2: FGF4: growth factor purchased from R&D Systems (protein, UniProt P08620 31-206, looked up)
Fibroblast growth factor 4: APTAPNGTLEAELERRWESLVALSLARLPVAAQPKEAAVQSGAGDYLLGIKRLRRLYCNVGIGFHLQALPDGRIGGAHADTRDSLLELSPVERGVVSIFGVASRFFVAMSSKGKLYGSPFFTDECTFKEILLPNNYNAYESYKYPGMFIALSKNGKTKKGNRVSPTMKVTHFLPRL
- retention of cell numbers ([1]; 50 ng/ml combined with 2.5 μM compound and Wnt3a, no activin A): not able to support retention of cell numbers
- increase in SOX17 expression (% of the activin A/Wnt3a control) ([1]; no activin A): 17%

B3: BMP-1: member of the BMP family, R&D Systems (protein, UniProt P13497 121-986, looked up)
Bone morphogenetic protein 1: AATSRPERVWPDGVIPFVIGGNFTGSQRAVFRQAMRHWEKHTCVTFLERTDEDSYIVFTYRPCGCCSYVGRRGGGPQAISIGKNCDKFGIVVHELGHVVGFWHEHTRPDRDRHVSIVRENIQPGQEYNFLKMEPQEVESLGETYDFDSIMHYARNTFSRGIFLDTIVPKYEVNGVKPPIGQRTRLSKGDIAQARKLYKCPACGETLQDSTGNFSSPEYPNGYSAHMHCVWRISVTPGEKIILNFTSLDLYRSRLCWYDYVEVRDGFWRKAPLRGRFCGSKLPEPIVSTDSRLWVEFRSSSNWVGKGFFAVYEAICGGDVKKDYGHIQSPNYPDDYRPSKVCIWRIQVSEGFHVGLTFQSFEIERHDSCAYDYLEVRDGHSESSTLIGRYCGYEKPDDIKSTSSRLWLKFVSDGSINKAGFAVNFFKEVDECSRPNRGGCEQRCLNTLGSYKCSCDPGYELAPDKRRCEAACGGFLTKLNGSITSPGWPKEYPPNKNCIWQLVAPTQYRISLQFDFFETEGNDVCKYDFVEVRSGLTADSKLHGKFCGSEKPEVITSQYNNMRVEFKSDNTVSKKGFKAHFFSDKDECSKDNGGCQQDCVNTFGSYECQCRSGFVLHDNKHDCKEAGCDHKVTSTSGTITSPNWPDKYPSKKECTWAISSTPGHRVKLTFMEMDIESQPECAYDHLEVFDGRDAKAPVLGRFCGSKKPEPVLATGSRMFLRFYSDNSVQRKGFQASHATECGGQVRADVKTKDLYSHAQFGDNNYPGGVDCEWVIVAEEGYGVELVFQTFEVEEETDCGYDYMELFDGYDSTAPRLGRYCGSGPPEEVYSAGDSVLVKFHSDDTITKKGFHLRYTSTKFQDTLHSRK
- effect on SOX17 expression [1, 4]: inhibited or had negligible effects on SOX17 expression

B4: BMP-7: member of the BMP family (protein, UniProt P18075 293-431, looked up)
Bone morphogenetic protein 7: STGSKQRSQNRSKTPKNQEALRMANVAENSSSDQRQACKKHELYVSFRDLGWQDWIIAPEGYAAYYCEGECAFPLNSYMNATNHAIVQTLVHFINPETVPKPCCAPTQLNAISVLYFDDSSNVILKKYRNMVVRACGCH
- effect on SOX17 expression [1, 4]: inhibited or had negligible effects on SOX17 expression
